# Structures can show the parent of a compound that is named as a salt.
# Tested on: Acinetobacter baumannii ATCC 17961
# Experiment: Antimicrobial susceptibility testing: 90% growth inhibitory concentration (IC90) determination
# Format: cell-based
# Details: ATCC17961, Acinetobacter baumannii ATCC 17961, Iso-Sensitest broth, read-out: ATCC 17961 IC90
# Description: Antimicrobial Susceptibility Testing:
# 90% Growth Inhibitory Concentration (IC90) Determination
# The in vitro antimicrobial activity of the compounds was determined according to the following procedure:
# The assay used a 10-points Iso-Sensitest broth medium to measure quantitatively the in vitro activity of the compounds against Acinetobacter baumannii ATCC 17961.
# Stock compounds in DMSO were serially twofold diluted (e.g. range from 50 to 0.097 μM final concentration) in 384 wells microtiter plates and inoculated with 49 μl the bacterial suspension in Iso-Sensitest medium to have a final cell concentration of ˜5×10^(5) CFU/ml in a final volume/well of 50 ul/well. Microtiter plates were incubated at 35±2° C.
# Bacterial cell growth was determined with the measurement of optical density at X=600 nm each 20 minutes over a time course of 16 h. Growth inhibition was calculated during the logarithmic growth of the bacterial cells with determination of the concentration inhibiting 50% (IC50) and 90% (IC90) of the growth.
# Table 1 provides the 90% growth inhibitory concentrations (IC90) in micromoles per liter of the compounds of present disclosure obtained against the strain Acinetobacter baumannii ATCC 17961.
row,SMILES,IC90
1,"Cn1c(-c2cn(C3CC3(F)F)nc2C(F)(F)F)cnc1C(=O)Nc1ccc(C(=O)NC2(C)CCN(C(=O)N[C@H]3C[C@@H](N)C3)CC2)c(Cl)c1 (mixture of isomers) [Example 333, rac-N-((1s,3s)-3-aminocyclobutyl)-4-(2-chloro-4-(5-(1-(2,2-difluorocyclopropyl)-3-(trifluoromethyl)-1H-pyrazol-4-yl)-1-methyl-1H-imidazole-2-carboxamido)benzamido)-4-methylpiperidine-1-carboxamide formate]",422 nM
2,"Cn1c(-c2cn(C3CC3(F)F)nc2C(F)(F)F)cnc1C(=O)Nc1ccc(C(=O)N[C@H]2C[C@H]3CC[C@@H](C2)N3)c(Cl)c1 (mixture of isomers) [Example 346, rac-N-(4-(((1R,3r,5S)-8-azabicyclo[3.2.1]octan-3-yl)carbamoyl)-3-chlorophenyl)-5-(1-(2,2-difluorocyclopropyl)-3-(trifluoromethyl)-1H-pyrazol-4-yl)-1-methyl-1H-imidazole-2-carboxamide formate]",446 nM
3,"Cn1c(-c2cn(C3CC3(F)F)nc2C(F)(F)F)cnc1C(=O)Nc1ccc(C(=O)NC2CC3CN(C(=O)N[C@H]4CNC[C@@H]4O)CC32)c(Cl)c1 (mixture of isomers) [Example 347, rac-6-(2-chloro-4-(5-(1-(2,2-difluorocyclopropyl)-3-(trifluoromethyl)-1H-pyrazol-4-yl)-1-methyl-1H-imidazole-2-carboxamido)benzamido)-N-((3S,4S)-4-hydroxypyrrolidin-3-yl)-3-azabicyclo[3.2.0]heptane-3-carboxamide formate]",446 nM
4,"COC1CN(C(=O)N[C@H]2CNC[C@@H]2O)CC1NC(=O)c1ccc(NC(=O)c2ncc(-c3cn(C4CC4(F)F)nc3C(F)(F)F)n2C)cc1Cl (mixture of isomers) [Example 350, rac-N-(3-chloro-4-((trans-1-(((3R,4R)-4-hydroxypyrrolidin-3-yl)carbamoyl)-4-methoxypyrrolidin-3-yl)carbamoyl)phenyl)-5-(1-(2,2-difluorocyclopropyl)-3-(trifluoromethyl)-1H-pyrazol-4-yl)-1-methyl-1H-imidazole-2-carboxamide formate]",450 nM
5,"Cn1c(-c2cn(C3CC3(F)F)nc2C(F)(F)F)cnc1C(=O)Nc1ccc(C(=O)NCC2C3CN(C(=O)N[C@H]4CNC[C@@H]4O)CC23)c(Cl)c1 (mixture of isomers) [Example 365, rac-6-((2-chloro-4-(5-(1-(2,2-difluorocyclopropyl)-3-(trifluoromethyl)-1H-pyrazol-4-yl)-1-methyl-1H-imidazole-2-carboxamido)benzamido)methyl)-N-((3S,4S)-4-hydroxypyrrolidin-3-yl)-3-azabicyclo[3.1.0]hexane-3-carboxamide formate]",483 nM
6,"Cn1c(-c2cn(CC3CC3(F)F)nc2C(F)(F)F)cnc1C(=O)Nc1ccc(C(=O)N[C@H]2[C@@H]3CN(C(=O)N[C@@H]4CNC[C@H]4O)C[C@@H]32)c(Cl)c1 (mixture of isomers) [Example 385, rac-(1R,5S,6s)-6-(2-chloro-4-(5-(1-((2,2-difluorocyclopropyl)methyl)-3-(trifluoromethyl)-1H-pyrazol-4-yl)-1-methyl-1H-imidazole-2-carboxamido)benzamido)-N-((3S,4S)-4-hydroxypyrrolidin-3-yl)-3-azabicyclo[3.1.0]hexane-3-carboxamide formate]",100 nM
7,"Cn1c(-c2cn(C3CC3(F)F)nc2C(F)(F)F)cnc1C(=O)Nc1ccc(C(=O)NC2CCN(C(=O)N[C@@H]3CNC[C@H]3O)CC2)c(Cl)c1 (relative stereo) [Example 337, 4-(2-chloro-4-(5-(1-(2,2-difluorocyclopropyl)-3-(trifluoromethyl)-1H-pyrazol-4-yl)-1-methyl-1H-imidazole-2-carboxamido)benzamido)-N-(trans-4-hydroxypyrrolidin-3-yl)piperidine-1-carboxamide]",426 nM

# The remaining lines, values ahead:
row,IC90,SMILES
1,467 nM,"Cn1c(-c2cn(CC3CC3)nc2C(F)(F)F)cnc1C(=O)Nc1ccc(C(=O)N2CCN(C(=O)C3[C@H]4CNC[C@@H]34)CC2)c(Cl)c1 (mixture of isomers) [Example 358, rac-N-(4-(4-((1R,5S)-3-azabicyclo[3.1.0]hexane-6-carbonyl)piperazine-1-carbonyl)-3-chlorophenyl)-5-(1-(cyclopropylmethyl)-3-(trifluoromethyl)-1H-pyrazol-4-yl)-1-methyl-1H-imidazole-2-carboxamide hydrochloride]"
2,525 nM,"Cn1c(-c2c[nH]nc2C(F)(F)F)cnc1C(=O)Nc1ccc(C(=O)N2CCN(C(=O)C3CCNCC3)CC2)c(Cl)c1 [Example 1, N-(3-chloro-4-(4-(piperidine-4-carbonyl)piperazine-1-carbonyl)phenyl)-1-methyl-5-(3-(trifluoromethyl)-1H-pyrazol-4-yl)-1H-imidazole-2-carboxamide hydrochloride]"
3,399 nM,"Cn1c(-c2cn(CC(F)(F)F)nc2C(F)(F)F)cnc1C(=O)Nc1ccc(C(=O)N2CCN(C(=O)C3CCNCC3)CC2)c(Cl)c1 [Example 2, N-(3-Chloro-4-(4-(piperidine-4-carbonyl)piperazine-1-carbonyl)phenyl)-1-methyl-5-(1-(2,2,2-trifluoroethyl)-3-(trifluoromethyl)-1H-pyrazol-4-yl)-1H-imidazole-2-carboxamide Hydrochloride]"
4,4060 nM,"Cn1c(-c2cn(CCC(N)=O)nc2C(F)(F)F)cnc1C(=O)Nc1ccc(C(=O)N2CCN(C(=O)C3CCNCC3)CC2)c(Cl)c1 [Example 4, 5-(1-(3-amino-3-oxopropyl)-3-(trifluoromethyl)-1H-pyrazol-4-yl)-N-(3-chloro-4-(4-(piperidine-4-carbonyl)piperazine-1-carbonyl)phenyl)-1-methyl-1H-imidazole-2-carboxamide]"
5,1040 nM,"Cn1c(-c2cn(CCC#N)nc2C(F)(F)F)cnc1C(=O)Nc1ccc(C(=O)N2CCN(C(=O)C3CCNCC3)CC2)c(Cl)c1 [Example 5, N-(3-chloro-4-(4-(piperidine-4-carbonyl)piperazine-1-carbonyl)phenyl)-5-(1-(2-cyanoethyl)-3-(trifluoromethyl)-1H-pyrazol-4-yl)-1-methyl-1H-imidazole-2-carboxamide]"
6,676 nM,"Cn1c(-c2cn(CC#CCO)nc2C(F)(F)F)cnc1C(=O)Nc1ccc(C(=O)N2CCN(C(=O)C3CCNCC3)CC2)c(Cl)c1 [Example 6, N-(3-chloro-4-(4-(piperidine-4-carbonyl)piperazine-1-carbonyl)phenyl)-5-(1-(4-hydroxybut-2-yn-1-yl)-3-(trifluoromethyl)-1H-pyrazol-4-yl)-1-methyl-1H-imidazole-2-carboxamide hydrochloride]"
7,358 nM,"C=CCn1cc(-c2cnc(C(=O)Nc3ccc(C(=O)N4CCN(C(=O)C5CCNCC5)CC4)c(Cl)c3)n2C)c(C(F)(F)F)n1 [Example 7, 5-(1-allyl-3-(trifluoromethyl)-1H-pyrazol-4-yl)-N-(3-chloro-4-(4-(piperidine-4-carbonyl)piperazine-1-carbonyl)phenyl)-1-methyl-1H-imidazole-2-carboxamide hydrochloride]"
8,327 nM,"CC#CCn1cc(-c2cnc(C(=O)Nc3ccc(C(=O)N4CCN(C(=O)C5CCNCC5)CC4)c(Cl)c3)n2C)c(C(F)(F)F)n1 [Example 8, 5-(1-(but-2-yn-1-yl)-3-(trifluoromethyl)-1H-pyrazol-4-yl)-N-(3-chloro-4-(4-(piperidine-4-carbonyl)piperazine-1-carbonyl)phenyl)-1-methyl-1H-imidazole-2-carboxamide hydrochloride]"
9,320 nM,"C#CC(C)n1cc(-c2cnc(C(=O)Nc3ccc(C(=O)N4CCN(C(=O)C5CCNCC5)CC4)c(Cl)c3)n2C)c(C(F)(F)F)n1 (stereo not shown) [Example 9, 5-(1-(but-3-yn-2-yl)-3-(trifluoromethyl)-1H-pyrazol-4-yl)-N-(3-chloro-4-(4-(piperidine-4-carbonyl)piperazine-1-carbonyl)phenyl)-1-methyl-1H-imidazole-2-carboxamide hydrochloride]"
10,339 nM,"Cn1c(-c2cn(C3CCC3)nc2C(F)(F)F)cnc1C(=O)Nc1ccc(C(=O)N2CCN(C(=O)C3CCNCC3)CC2)c(Cl)c1 [Example 10, N-(3-chloro-4-(4-(piperidine-4-carbonyl)piperazine-1-carbonyl)phenyl)-5-(1-cyclobutyl-3-(trifluoromethyl)-1H-pyrazol-4-yl)-1-methyl-1H-imidazole-2-carboxamide hydrochloride]"
11,466 nM,"Cn1c(-c2cn(CCF)nc2C(F)(F)F)cnc1C(=O)Nc1ccc(C(=O)N2CCN(C(=O)C3CCNCC3)CC2)c(Cl)c1 [Example 11, N-(3-chloro-4-(4-(piperidine-4-carbonyl)piperazine-1-carbonyl)phenyl)-5-(1-(2-fluoroethyl)-3-(trifluoromethyl)-1H-pyrazol-4-yl)-1-methyl-1H-imidazole-2-carboxamide hydrochloride]"

# Same assay, conditions: Acinetobacter baumannii, ATCC17961, read-out: ATCC 17961 IC90, Acinetobacter baumannii ATCC 17961, Iso-Sensitest broth
row,SMILES,IC90
1,"Cn1c(-c2cn(C3CC3(F)F)nc2C(F)(F)F)cnc1C(=O)Nc1ccc(C(=O)N2CCC(F)(CNC(=O)N[C@H]3CNC[C@@H]3O)CC2)c(Cl)c1 (relative stereo) [Example 179, N-(3-chloro-4-(4-fluoro-4-((3-(trans-4-hydroxypyrrolidin-3-yl)ureido)methyl)piperidine-1-carbonyl)phenyl)-5-(1-(2,2-difluorocyclopropyl)-3-(trifluoromethyl)-1H-pyrazol-4-yl)-1-methyl-1H-imidazole-2-carboxamide Formate]",192 nM
